Laboratory results published in PubChem BioAssay (NCI).
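Five concentrations, 48 hours, 96-well plates. Abbreviation: GI50, concentration required for 50% inhibition of growth. At the TGI there is no net growth.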

Columns and labels:
Assay in all cases: DTP human tumour cell line panel, 48 h
K-562 leukemia = system: K-562 leukemia
SN12C renal = system: SN12C renal
NCI-H522 lung = system: NCI-H522 lung
OVCAR-5 ovarian = system: OVCAR-5 ovarian
UACC-62 melanoma = system: UACC-62 melanoma
HT29 colon = system: HT29 colon
OVCAR-3 ovarian = system: OVCAR-3 ovarian
MOLT-4 leukemia = system: MOLT-4 leukemia
NCI/ADR-RES ovarian = system: NCI/ADR-RES ovarian
MCF7 breast = system: MCF7 breast

Structure (SMILES) | TGI (K-562 leukemia) [µM] | TGI (SN12C renal) [µM] | TGI (NCI-H522 lung) [µM] | TGI (OVCAR-5 ovarian) [µM] | TGI (UACC-62 melanoma) [µM] | TGI (HT29 colon) [µM] | TGI (OVCAR-3 ovarian) [µM] | TGI (MOLT-4 leukemia) [µM] | GI50 (K-562 leukemia) [µM] | GI50 (SN12C renal) [µM] | GI50 (NCI-H522 lung) [µM] | GI50 (OVCAR-5 ovarian) [µM] | GI50 (NCI/ADR-RES ovarian) [µM] | TGI (NCI/ADR-RES ovarian) [µM] | GI50 (UACC-62 melanoma) [µM] | GI50 (MCF7 breast) [µM] | TGI (MCF7 breast) [µM] | GI50 (HT29 colon) [µM] | GI50 (OVCAR-3 ovarian) [µM] | GI50 (MOLT-4 leukemia) [µM]
COCCNC(=O)C1C(=O)C(=O)N(CCOC)C1=O (configuration not stated) | > 100 | > 100 | > 100 | > 100 | > 100 | > 100 | > 100 | – | – | – | – | – | – | – | – | – | – | – | – | –
Cc1ccc(C)c(N2C(=O)C(=O)C(c3nc4ccccc4s3)/C(=N/NC(=O)NN)C2=O)c1 (configuration not stated) | – | > 100 | > 100 | – | > 100 | > 100 | > 100 | > 100 | – | – | – | – | – | – | – | – | – | – | – | –
CCN(CC)CCCCCCNc1cc(OC)cc2cccnc12 | 3.58 | 5 | 4.76 | 22.7 | 5.16 | 3.43 | 3.4 | 3.86 | 1.74 | 2.29 | 2.17 | 6.74 | 7.16 | 27.3 | 2.29 | 1.74 | 3.56 | 1.82 | 1.74 | 1.84
Cc1ccc(/C(C#N)=C/c2cccc([N+](=O)[O-])c2)cc1 | > 100 | > 100 | > 100 | > 100 | > 100 | > 100 | > 100 | – | – | – | – | – | – | > 100 | – | – | > 100 | – | – | –
N#CCCN1C/C(=C/c2ccc(Cl)cc2)C(=O)/C(=C/c2ccc(Cl)cc2)C1 | > 100 | 3.39 | 3.41 | 4.7 | 4.1 | 0.574 | 2.5 | 8.39 | 0.378 | 1.44 | 1.77 | 2.07 | 3.4 | 52.2 | 1.8 | 0.42 | 2.81 | 0.238 | 1.2 | 1.94
C=CCN1CC(=O)N2[C@@H](Cc3ccc(O)cc3F)C(=O)N(Cc3cccc(N4CC(N5CCN(CC)CC5)C4)n3)C[C@@H]2N1C(=O)NCc1ccccc1 | > 100 | > 100 | – | > 100 | 10.5 | 16.2 | > 100 | – | 0.0397 | 0.111 | 0.0284 | 0.0354 | 2.19 | 32.8 | 0.0539 | 0.524 | > 100 | 0.0537 | 0.0328 | 0.0276
COC(=O)c1cc2c(cc1Cl)SC1=NN(C)C(N(C)C)N1S2(=O)=O (configuration not stated) | > 100 | > 100 | > 100 | > 100 | > 100 | > 100 | > 100 | > 100 | > 100 | > 100 | > 100 | > 100 | > 100 | > 100 | > 100 | > 100 | > 100 | > 100 | > 100 | 62.8
C[CH2][Sn]([CH2]C)([O]C(=O)c1ccccc1OC)[O][Sn]([CH2]C)([CH2]C)[O]C(=O)c1ccccc1OC | > 100 | > 100 | 14.7 | > 100 | > 100 | > 100 | > 100 | > 100 | 47 | > 100 | 3.02 | > 100 | – | – | > 100 | – | – | > 100 | > 100 | > 100
COC(=O)[C@@]1(C(C)CC(=O)O)CCCCC1=O (some centres not stated) | > 100 | > 100 | > 100 | > 100 | > 100 | > 100 | > 100 | > 100 | – | – | – | – | – | – | – | – | – | – | – | –
C=C1CCC2[C@@H](CCC3[C@]2(C)CCC[C@]3(C)C(=O)OC)C1CC=O (some centres not stated) | 26.6 | 36.7 | 31.8 | 31.8 | 31.6 | 30.8 | 27.7 | 29.8 | 8.65 | – | 16.3 | 16.7 | – | – | – | – | – | – | – | 11.2
CCCCCO/N=C\c1c2c(O)c3c(O)c(C)c4c(c3c1O)C(=O)C(C)(O/C=C\C(OC)C(C)C(OC(C)=O)C(C)C(O)C(C)C(O)C(C)/C=C\C=C(\C)C(=O)N2)O4 (configuration not stated) | > 100 | 3.35 | – | 4.12 | 2.71 | – | 2.82 | 9.1 | 3.57 | 1.63 | – | 1.94 | 1.79 | 3.68 | 1.39 | 1.71 | 3.54 | – | 1.5 | 2.8
NC(=O)C(=O)C1CCC2=C(Sc3ccccc3N2)C1=O (configuration not stated) | > 100 | – | > 100 | > 100 | > 100 | – | > 100 | > 100 | – | – | – | – | – | – | – | – | – | – | – | –
Nc1c([N+](=O)[O-])nc(Cl)c2nncn12 | > 100 | > 100 | > 100 | > 100 | > 100 | > 100 | > 100 | > 100 | – | – | – | – | – | – | – | – | – | – | – | –
N#CC(C#N)c1ccc(C(=O)N2CCC[C@H]2CO)cc1 | > 100 | > 100 | > 100 | > 100 | > 100 | > 100 | > 100 | > 100 | – | – | – | – | – | – | – | – | – | – | – | –
COc1ccc(-c2cc(C(=O)Nc3ccc(C)c(C)c3)nc(NC#N)n2)cc1 | > 100 | > 100 | > 100 | > 100 | > 100 | > 100 | > 100 | > 100 | – | – | – | – | – | – | – | – | – | – | – | –
Cc1ccccc1NC(=O)C(=O)C(C#N)c1ccccc1C (configuration not stated) | 61.5 | > 100 | > 100 | > 100 | > 100 | > 100 | > 100 | > 100 | – | – | – | – | – | – | – | – | – | – | – | –
COCOCC/C=C/C=O | > 100 | > 100 | > 100 | > 100 | > 100 | > 100 | > 100 | > 100 | – | – | – | – | – | – | – | – | – | – | – | –
Cc1ccc(S(=O)(=O)N/N=C(/CC(=O)c2c(C)n([O-])c3ccccc3[n+]2=O)C(=O)Nc2ccccc2C)cc1 | – | > 100 | > 100 | > 100 | > 100 | > 100 | > 100 | – | – | – | – | – | – | – | – | – | – | – | – | –
CC1(C)CC(=O)C(/C(=N/NC(=S)NN)C(=O)Nc2nc3ccc([N+](=O)[O-])cc3s2)C(=O)C1 | > 100 | > 100 | > 100 | > 100 | > 100 | > 100 | > 100 | > 100 | – | – | – | – | – | – | – | – | – | – | – | –
